# Article PMC9866191, “Novel 9-Benzylaminoacridine Derivatives as Dual Inhibitors of Phosphodiesterase 5 and Topoisomerase II for the Treatment of Colon Cancer” (Molecules, 2023)
# Legend:
# PDE5A = biological target: T1, PDE5A (Homo sapiens, UniProt O76074); experiment: Phosphodiesterase 5 HTRF cGMP assay; type: biochemical; conditions: for IC50: means ± S.D. (n = 4), read-out: PDE5 IC50; for inhibition at 10 µM: read-out: PDE5 % Inhibition at 10 μM
# T1 construct: purchased BPS Bioscience, San Diego, CA, USA
# Experimental: All the synthesized acridine derivatives were tested for their in vitro ability to inhibit PDE5A at a screening dose of 10 µM.
# The enzyme activities of phosphodiesterase 5 (PDE5) were measured using an HTRF cGMP assay kit (Cisbio, Codolet, France). […] Afterward, the HTRF reagent (cGMP-d2 and anti-cGMP-cryptate) was added for 1 h at 25 °C, and PDE activity was assayed on an HTRF reader (Tecan Infinite F200 Pro).
# [1] = test system: panel of 60 human tumor cell lines; experiment: NCI 60-cell line one-dose screen (mean); type: cell-based; conditions: mean of the 60 cell lines, single dose 10^−5 M, read-out: Mean % Growth Inhibition
# Procedure, shortened: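 Each cancer cell line within the NCI-60 set received compound at 10^−5 M. The percentage of inhibition served as the measure of activity.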
# CCRF-CEM = experiment: NCI-60 one-dose screen; type: cell-based; conditions: Homo sapiens, Leukemia panel, single dose 10^−5 M, read-out: Growth inhibition %
# ACHN = experiment: NCI-60 one-dose screen; type: cell-based; conditions: Homo sapiens, Renal Cancer panel, single dose 10^−5 M, read-out: Growth inhibition %
# BT-549 = experiment: NCI-60 one-dose screen; type: cell-based; conditions: Homo sapiens; BT-549, Breast Cancer panel; single dose 10^−5 M; read-out: Growth inhibition %
# DU-145 = experiment: NCI-60 one-dose screen; type: cell-based; conditions: Homo sapiens; DU-145, Prostate Cancer panel; single dose 10^−5 M; read-out: Growth inhibition %
# HT29 = experiment: NCI-60 one-dose screen; type: cell-based; conditions: Homo sapiens, HT-29; HT29, Colon Cancer panel; single dose 10^−5 M; read-out: Growth inhibition %
# K-562 = experiment: NCI-60 one-dose screen; type: cell-based; conditions: Homo sapiens, K562; K-562, Leukemia panel; single dose 10^−5 M; read-out: Growth inhibition %
# KM12 = experiment: NCI-60 one-dose screen; type: cell-based; conditions: Homo sapiens; KM12, Colon Cancer panel; single dose 10^−5 M; read-out: Growth inhibition %
# MDA-MB-231/ATCC = experiment: NCI-60 one-dose screen; type: cell-based; conditions: Homo sapiens, Breast Cancer panel, single dose 10^−5 M, read-out: Growth inhibition %
# MDA-MB-468 = experiment: NCI-60 one-dose screen; type: cell-based; conditions: Homo sapiens; MDA-MB-468, Breast Cancer panel; single dose 10^−5 M; read-out: Growth inhibition %
# NCI-H226 = experiment: NCI-60 one-dose screen; type: cell-based; conditions: Homo sapiens; NCI-H226, Non-small cell lung panel; single dose 10^−5 M; read-out: Growth inhibition %
# NCI-H322M = experiment: NCI-60 one-dose screen; type: cell-based; conditions: Homo sapiens, Non-small cell lung panel, single dose 10^−5 M, read-out: Growth inhibition %
# NCI-H460 = experiment: NCI-60 one-dose screen; type: cell-based; conditions: Homo sapiens; NCI-H460, Non-small cell lung panel; single dose 10^−5 M; read-out: Growth inhibition %
# PC-3 = experiment: NCI-60 one-dose screen; type: cell-based; conditions: Homo sapiens; PC-3, Prostate Cancer panel; single dose 10^−5 M; read-out: Growth inhibition %
# RPMI-8226 = experiment: NCI-60 one-dose screen; type: cell-based; conditions: Homo sapiens; RPMI-8226, Leukemia panel; single dose 10^−5 M; read-out: Growth inhibition %
# RXF 393 = experiment: NCI-60 one-dose screen; type: cell-based; conditions: Homo sapiens; RXF 393, Renal Cancer panel; single dose 10^−5 M; read-out: Growth inhibition %
# SF-539 = experiment: NCI-60 one-dose screen; type: cell-based; conditions: Homo sapiens; SF-539, CNS Cancer panel; single dose 10^−5 M; read-out: Growth inhibition %
# SK-MEL-28 = experiment: NCI-60 one-dose screen; type: cell-based; conditions: Homo sapiens; SK-MEL-28, Melanoma panel; single dose 10^−5 M; read-out: Growth inhibition %
# SK-MEL-2 = experiment: NCI-60 one-dose screen; type: cell-based; conditions: Homo sapiens; SK-MEL-2, Melanoma panel; single dose 10^−5 M; read-out: Growth inhibition %
# SK-OV-3 = experiment: NCI-60 one-dose screen; type: cell-based; conditions: Homo sapiens; SK-OV-3, Ovarian Cancer panel; single dose 10^−5 M; read-out: Growth inhibition %
# SNB-19 = experiment: NCI-60 one-dose screen; type: cell-based; conditions: Homo sapiens; SNB-19, CNS Cancer panel; single dose 10^−5 M; read-out: Growth inhibition %
# SNB-75 = experiment: NCI-60 one-dose screen; type: cell-based; conditions: Homo sapiens; SNB-75, CNS Cancer panel; single dose 10^−5 M; read-out: Growth inhibition %
# SW-620 = experiment: NCI-60 one-dose screen; type: cell-based; conditions: Homo sapiens; SW-620, Colon Cancer panel; single dose 10^−5 M; read-out: Growth inhibition %
# U251 = experiment: NCI-60 one-dose screen; type: cell-based; conditions: Homo sapiens, U-251; U251, CNS Cancer panel; single dose 10^−5 M; read-out: Growth inhibition %
# LOX IMVI = experiment: NCI-60 one-dose screen; type: cell-based; conditions: Homo sapiens, Melanoma panel, single dose 10^−5 M, read-out: Growth inhibition %
# IGROV1 = experiment: NCI-60 one-dose screen; type: cell-based; conditions: Homo sapiens, IGROV-1; IGROV1, Ovarian Cancer panel; single dose 10^−5 M; read-out: Growth inhibition %
# CCD-966SK = experiment: MTT cell proliferation assay, CCD-966SK; conditions: CCD966SK skin fibroblast, 72 h MTT
SMILES,IC50 (PDE5A),inhibition at 10 µM (PDE5A),inhibition at 10 µM [1],inhibition at 10 µM (CCRF-CEM),inhibition at 10 µM (ACHN),inhibition at 10 µM (BT-549),inhibition at 10 µM (DU-145),inhibition at 10 µM (HT29),inhibition at 10 µM (K-562),inhibition at 10 µM (KM12),inhibition at 10 µM (MDA-MB-231/ATCC),inhibition at 10 µM (MDA-MB-468),inhibition at 10 µM (NCI-H226),inhibition at 10 µM (NCI-H322M),inhibition at 10 µM (NCI-H460),inhibition at 10 µM (PC-3),inhibition at 10 µM (RPMI-8226),inhibition at 10 µM (RXF 393),inhibition at 10 µM (SF-539),inhibition at 10 µM (SK-MEL-28),further results
"c1ccc(CCNc2c3ccccc3nc3ccccc23)cc1 [Compound 23, Acridin-9-yl-phenethyl-amine]",6.68 ± 1.1 µM,57.3 ± 3.58%,60.7%,46.7%,78.4%,26.4%,62%,77.9%,75%,42.6%,56.7%,111%,43.7%,53.4%,84.7%,64.3%,80.5%,64.7%,71.9%,32.3%,inhibition at 10 µM (SK-MEL-2): 13.7%; inhibition at 10 µM (SK-OV-3): 37.4%; inhibition at 10 µM (SNB-19): 60.5%; inhibition at 10 µM (SNB-75): 32.4%; inhibition at 10 µM (SW-620): 71.7%; inhibition at 10 µM (U251): 58.9%; inhibition at 10 µM (LOX IMVI): 82.4%; inhibition at 10 µM (IGROV1): 72%; % Inhibition at 10 µM (CCD-966SK): 11.36 ± 7.38%
"c1csc(-c2ccc(CNc3c4ccccc4nc4ccccc34)cc2)c1 [Compound 24, Acridin-9-yl-(4-thiophen-2-yl-benzyl)-amine]",> 10 µM,42.9 ± 5.35%,96.9%,97.4%,41.4%,66.3%,38.3%,147%,140%,73.7%,61.7%,173%,31%,49.4%,87.1%,76%,144%,114%,87.5%,186%,inhibition at 10 µM (SK-MEL-2): 19.2%; inhibition at 10 µM (SK-OV-3): 35%; inhibition at 10 µM (SNB-19): 53.8%; inhibition at 10 µM (SNB-75): 63.9%; inhibition at 10 µM (SW-620): 172%; inhibition at 10 µM (U251): 173%; inhibition at 10 µM (LOX IMVI): 191%; inhibition at 10 µM (IGROV1): 90%; % Inhibition at 10 µM (CCD-966SK): 47.41 ± 2.48%
"COc1ccc2nc3ccccc3c(NCc3ccccc3)c2c1 [Compound 25, Benzyl-(2-methoxyacridin-9-yl)-amine]",3.61 ± 1 µM,77.2 ± 3.03%,80%,66.6%,87.2%,49.7%,77.5%,91.5%,94.2%,63.5%,72.2%,110%,65.6%,70.5%,93.7%,71.3%,131%,94.1%,88.2%,50.3%,inhibition at 10 µM (SK-MEL-2): 52.1%; inhibition at 10 µM (SK-OV-3): 55.5%; inhibition at 10 µM (SNB-19): 75.8%; inhibition at 10 µM (SNB-75): 54.5%; inhibition at 10 µM (SW-620): 80.5%; inhibition at 10 µM (U251): 77.1%; inhibition at 10 µM (LOX IMVI): 131%; inhibition at 10 µM (IGROV1): 83.6%; % Inhibition at 10 µM (CCD-966SK): 44.14 ± 3.80%
"COc1ccc2nc3ccccc3c(NCc3ccc(C)cc3)c2c1 [Compound 26, (2-Methoxyacridin-9-yl)-(4-methylbenzyl)-amine]",0.83 ± 0.12 µM,88.1 ± 4.28%,79.9%,92.9%,83.7%,48.4%,78.4%,98.8%,97.3%,62.7%,66.4%,119%,57.9%,69.7%,90%,88.6%,146%,93.8%,89.3%,33.6%,inhibition at 10 µM (SK-MEL-2): 30%; inhibition at 10 µM (SK-OV-3): 47.3%; inhibition at 10 µM (SNB-19): 70.8%; inhibition at 10 µM (SNB-75): 53.4%; inhibition at 10 µM (SW-620): 81.5%; inhibition at 10 µM (U251): 84.7%; inhibition at 10 µM (LOX IMVI): 106%; inhibition at 10 µM (IGROV1): 82.8%; % Inhibition at 10 µM (CCD-966SK): 46.76 ± 3.21%
"COc1ccc(CNc2c3ccccc3nc3ccc(OC)cc23)cc1 [Compound 27, (2-Methoxyacridin-9-yl)-(4-methoxybenzyl)-amine]",1.87 ± 1.03 µM,88.8 ± 4.84%,87.9%,80.6%,89.8%,57%,80%,103%,99.7%,72.4%,76.4%,115%,66.2%,76.5%,93.5%,94.5%,148%,103%,91.5%,58.7%,inhibition at 10 µM (SK-MEL-2): 59.1%; inhibition at 10 µM (SK-OV-3): 52.9%; inhibition at 10 µM (SNB-19): 77.3%; inhibition at 10 µM (SNB-75): 72.6%; inhibition at 10 µM (SW-620): 84.2%; inhibition at 10 µM (U251): 83.9%; inhibition at 10 µM (LOX IMVI): 175%; inhibition at 10 µM (IGROV1): 88.8%; % Inhibition at 10 µM (CCD-966SK): 19.04 ± 3.94%
"COc1ccc2nc3ccccc3c(NCc3ccc(F)cc3)c2c1 [Compound 28, (4-Fluorobenzyl)-(2-methoxyacridin-9-yl)-amine]",5.31 ± 1.27 µM,64.2 ± 7.47%,92.2%,81.7%,94.3%,65%,83.5%,99.8%,98%,71.3%,83.3%,124%,70%,77.4%,94.5%,82.9%,143%,119%,96.2%,64.7%,inhibition at 10 µM (SK-MEL-2): 65%; inhibition at 10 µM (SK-OV-3): 62.1%; inhibition at 10 µM (SNB-19): 82.3%; inhibition at 10 µM (SNB-75): 76.2%; inhibition at 10 µM (SW-620): 85.3%; inhibition at 10 µM (U251): 77.9%; inhibition at 10 µM (LOX IMVI): 167%; inhibition at 10 µM (IGROV1): 91.8%; % Inhibition at 10 µM (CCD-966SK): 60.66 ± 2.63%; IC50 (CCD-966SK; read-out: IC50 μM): 4.67 ± 0.07 µM
